Assay results published in US9260435B2, “Substituted imidazopyrazines as Akt kinase inhibitors” (Bayer Intellectual Property GmbH, priority 2012, dated 2016).

Legend:
[1] = target: His-tagged human recombinant kinase full-length Akt2 (Homo sapiens (Human), UniProt P31751); assay: Akt2 kinase assay (TR-FRET); assay type: biochemical; details: 10 μM ATP, read-out: Akt2, median IC50
Excerpt: Biological Assay 2.0: Akt2 Kinase Assay
Akt2 inhibitory activity of compounds of the present invention was quantified employing the Akt2 TR-FRET assay as described in the following paragraphs.
(§1) His-tagged human recombinant kinase full-length Akt2 expressed in insect cells and activated by PDK1 was purchased from Invitrogen (part number PV 3975). As substrate for the kinase reaction the biotinylated peptide biotin-Ahx-KKLNRTLSFAEPG (C-terminus in amide form) was used which can be purchased e.g. from the company Biosynthan GmbH (Berlin-Buch, Germany).
(§2) For the assay 50 nl of a 100 fold concentrated solution of the test compound in DMSO was pipetted into a black low volume 384 well microtiter plate (Greiner Bio-One, Frickenhausen, Germany), 2 μl of a solution of Akt2 in assay buffer [50 mM TRIS/HCl pH 7.5, 5 mM MgCl2, 1 mM dithiothreitol, 0.02% (v/v) Triton X-100 (Sigma)] were added and the mixture was incubated for 15 min at 22° C. to allow prebinding of the test compounds to the enzyme before the start of the kinase reaction. Then the kinase reaction was started by the addition of 3 μl of a solution of adenosine-tri-phosphate (ATP, 16.7 μM=>final conc. in the 5 μl assay volume is 10 μM) and substrate (1.67 μM=>final conc. in the 5 μl assay volume is 1 μM) in assay buffer and the resulting mixture was incubated for a reaction time of 60 min at 22° C. The concentration of Akt2 in the assay was adjusted depending of the activity of the enzyme lot and was chosen appropriate to have the assay in the linear range, typical enzyme concentrations were in the range of about 0.2 ng/μl (final conc. in the 5 μl assay volume).
(§3) The reaction was stopped by the addition of 5 μl of a solution of HTRF detection reagents (200 nM streptavidine-XL665 [Cisbio] and 1.5 nM anti-phosho-Serine antibody [Millipore, cat. #35-001] and 0.75 nM LANCE Eu-W 1024 labeled anti-mouse IgG antibody [Perkin Elmer]) in an aqueous EDTA-solution (100 mM EDTA, 0.1% (w/v) bovine serum albumin in 50 mM HEPES/NaOH pH 7.5).
(§4) The resulting mixture was incubated 1 h at 22° C. to allow the binding of the biotinylated phosphorylated peptide to the streptavidine-XL665 and the antibodies. Subsequently the amount of phosphorylated substrate was evaluated by measurement of the resonance energy transfer from the anti-mouse-IgG-Eu-Chelate to the streptavidine-XL665. Therefore, the fluorescence emissions at 620 nm and 665 nm after excitation at 350 nm was measured in a TR-FRET reader, e.g. a Rubystar (BMG Labtechnologies, Offenburg, Germany) or a Viewlux (Perkin-Elmer). The ratio of the emissions at 665 nm and at […] was taken as the measure for the amount of phosphorylated substrate. The data were normalised (enzyme reaction without inhibitor=0% inhibition, all other assay components but no enzyme=100% inhibition).

[2] = target: His-tagged human recombinant kinase full-length Akt1 (Homo sapiens (Human), UniProt P31749); assay: Akt1 kinase assay (TR-FRET); assay type: biochemical; details: 10 μM ATP, read-out: Akt1, median IC50
Excerpt: Biological Assay 1.0: Akt1 Kinase Assay
Akt1 inhibitory activity of compounds of the present invention was quantified employing the Akt1 TR-FRET assay as described in the following paragraphs.
as §1, with “full-length Akt1” for “full-length Akt2”, “cells” for “cells and activated by PDK1”, “purchased form” for “purchased from”, “PV 3599).” for “PV 3975).”
as §2, with “Akt1” for “Akt2”, “0.05” for “0.2”
as §3
as §4, with “HTRF” for “TR-FRET”

[3] = test system: KPL-4 breast cancer cell line; assay: Tumor cell proliferation assay (CellTiter-Glo, 72 h), KPL-4; assay type: cell-based; details: Homo sapiens, KPL4, 72 h drug exposure
Description: (§5) Biological Assay 4.0: Tumor Cell Proliferation Assays
(§6) Compounds were tested in a cell-based assay that measures the capacity of the compounds to inhibit tumour cell proliferation following a 72 h drug exposure. Cell viability is determined using CellTiter-Glow® (CTG, Promega, cat# G7571/2/3). The CellTiter-Glo® Luminescent Cell Viability Assay is a homogeneous method to determine the number of viable cells in culture. Detection is based on using the luciferase reaction to measure the amount of ATP from viable cells. The amount of ATP in cells correlates with cell viability. Within minutes after a loss of membrane integrity, cells lose the ability to synthesize ATP, and endogenous ATPases destroy any remaining ATP; thus the levels of ATP fall precipitously.
(§7) Cells were plated at 3000-5000 cells/well (depending on the cell lines) in 90 μL growth medium on MTPs (Corning; #3603, black plate, clear flat bottom). For each cell line assayed, cells were plated onto a separate plate for determination of […] at t=0 hour and t=72 hour time points. Following overnight incubation at 37° C., chemiluminescence values for the t=0 samples were determined after adding 10 μl medium and 100 μl CTG solution according to manufacture protocol. Plates for the t=72 hour time points were treated with compounds diluted into growth medium at ten times final concentration added in 10 μL to the cell culture plate. Cells were then incubated for 72 hours at 37° C. Chemiluminescence values for the t=72 hour samples were determined. […] Experiments were controlled using a reference compound as standard.
(§8) Preferred compounds of the present invention show in this assay an inhibition of cell growth of cell lines such as the KPL-4 breast cancer cell line and the MCF-7 breast tumour cell line ([…], hormone dependent) with a median IC50 of <10 μM, more preferably, median IC50≦1 μM.

p-4E-BP1 at T70 = assay: Cellular p-4E-BP1-T70 assay in KPL-4 cells; assay type: cell-based; details: Homo sapiens, KPL4; KPL-4 breast tumour cell line, 2 hours treatment; read-out: P4EBP1-T70 median IC50
Description: The molecular mechanism of action was investigated in a set of experiments to assess the inhibition of the PI3K-AKT-mTOR pathway in responsive cell lines such as KPL-4 breast tumour cell line (PIK3CA^H1047R, HER2^O/E and hormone independent). The phospho-substrates of PI3K-AKT-mTOR axis were used as the readouts to reflect pathway inhibition. Cells were seeded at 60-80% confluency per well in 96-well cell culture plates. After overnight incubation at 37° C. 5% CO2, cells were treated with compounds and vehicle at 37° C. for 2 hours. Thereafter, cells were lysed in 150 μl lysis buffer and the levels of phospho-AKT at T308 and S473 and p-4E-BP1 at T70 sites were determined with the corresponding AlphaScreen® SureFire® assay kits (Perkin Elmer: 4E-BP1 Assay Kit Cat # TRG4E2S10K; Akt 1/2/3 p-Ser 473 #TGRA4S500 and Akt 1/2/3 p-Thr 308 #TGRA3S500 as well as IgG detection Kit #6760617M) as described in the manuals. All measurements where at least done in duplicates and confirmed by independent repetition. Alternatively pAKT-S473 was measured using the “Akt Duplex” of the MULTI-SPOT® Assay System (Fa. Meso Scale Discovery, Cat# N41100B-1) following manufacturers instructions. Each assay used 20 μg of protein extract and measured total AKT and p-AKT content simultaneously in one well. All measurements where at least done in duplicates and confirmed by independent repetition. Values for P-AKT are expressed as percentage of P-AKT level compared to total-AKT content of the extracts.

[4] = test system: MCF-7 breast tumour cell line; assay: Tumor cell proliferation assay (CellTiter-Glo, 72 h), MCF-7; assay type: cell-based; details: Homo sapiens, MCF7, 72 h drug exposure
Description: as §5, §6, §7, §8

phospho-AKT at S473 = assay: Cellular p-AKT1/2/3-S473 assay in KPL-4 cells; assay type: cell-based; details: Homo sapiens, KPL4; KPL-4 breast tumour cell line, 2 hours treatment; read-out: pAKT-S743 median IC50
Description: The phospho-substrates of PI3K-AKT-mTOR axis were used as the readouts to reflect pathway inhibition. Cells were seeded at 60-80% confluency per well in 96-well cell culture plates. After overnight incubation at 37° C. 5% CO2, cells were treated with compounds and vehicle at 37° C. for 2 hours. […] All measurements where at least done in duplicates and confirmed by independent repetition. Alternatively pAKT-S473 was measured using the “Akt Duplex” of the MULTI-SPOT® Assay System (Fa. Meso Scale Discovery, Cat# N41100B-1) following manufacturers instructions. Each assay used 20 μg of protein extract and measured total AKT and p-AKT content simultaneously in one well. All measurements where at least done in duplicates and confirmed by independent repetition. Values for P-AKT are expressed as percentage of P-AKT level compared to total-AKT content of the extracts.

His-tagged human recombinant kinase full-length Akt2, sequence (P31751 whole entry): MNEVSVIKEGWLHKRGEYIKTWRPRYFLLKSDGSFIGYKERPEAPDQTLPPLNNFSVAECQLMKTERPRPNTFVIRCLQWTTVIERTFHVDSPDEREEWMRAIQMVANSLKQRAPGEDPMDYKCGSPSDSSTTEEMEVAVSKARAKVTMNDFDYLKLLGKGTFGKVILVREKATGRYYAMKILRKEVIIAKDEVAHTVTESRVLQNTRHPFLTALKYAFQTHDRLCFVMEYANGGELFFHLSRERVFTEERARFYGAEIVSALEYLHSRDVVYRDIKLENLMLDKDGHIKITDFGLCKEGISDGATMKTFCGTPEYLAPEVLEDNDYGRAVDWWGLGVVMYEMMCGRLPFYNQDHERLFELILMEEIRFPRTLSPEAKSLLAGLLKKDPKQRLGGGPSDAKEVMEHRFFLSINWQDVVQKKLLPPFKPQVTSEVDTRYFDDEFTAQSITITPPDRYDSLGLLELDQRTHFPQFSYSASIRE
His-tagged human recombinant kinase full-length Akt1, sequence (P31749 whole entry): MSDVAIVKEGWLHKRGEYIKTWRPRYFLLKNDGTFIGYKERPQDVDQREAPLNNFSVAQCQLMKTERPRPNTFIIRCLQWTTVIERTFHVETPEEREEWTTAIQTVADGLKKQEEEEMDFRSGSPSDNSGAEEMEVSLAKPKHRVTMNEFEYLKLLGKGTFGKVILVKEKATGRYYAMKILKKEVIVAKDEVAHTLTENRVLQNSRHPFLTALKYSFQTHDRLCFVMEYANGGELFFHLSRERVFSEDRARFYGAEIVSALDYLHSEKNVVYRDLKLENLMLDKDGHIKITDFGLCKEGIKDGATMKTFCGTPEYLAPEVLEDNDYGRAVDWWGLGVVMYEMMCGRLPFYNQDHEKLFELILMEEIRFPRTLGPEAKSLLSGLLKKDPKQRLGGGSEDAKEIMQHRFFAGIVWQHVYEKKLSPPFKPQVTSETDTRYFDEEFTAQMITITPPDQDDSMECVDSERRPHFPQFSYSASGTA

Compound	IC50 [1]	IC50 [2]	inhibition at 1.67 µM ([3]; 1.67 μM, read-out: KPL-4 median inhibition at 1.67 μM (%))	IC50 [3]	IC50 (p-4E-BP1 at T70)	inhibition at 1.67 µM ([4]; 1.67 μM, read-out: MCF-7 median inhibition at 1.67 μM (%))	IC50 [4]	IC50 (phospho-AKT at S473)
NC1(c2ccc(-c3nc4c(O)nccn4c3-c3ccccc3)cc2)CCC1 [Example 1, 2-[4-(1-Aminocyclobutyl)phenyl]-3-phenylimidazo[1,2-a]pyrazin-8-ol]	0.97 µM	1.6 µM						
CCOC(=O)c1cn2c(-c3ccccc3)c(-c3ccc(C4(N)CCC4)cc3)nc2cn1 [Example 5, Ethyl 2-[4-(1-aminocyclobutyl)phenyl]-3-phenylimidazo[1,2-a]pyrazine-6-carboxylate]			15.2%	10 µM	0.029 µM	40.6%	2.4 µM	0.037 µM
